From patent US20070105873A1 (priority 2003, published 2007)

Experiments:
Alternaria solani = experiment: Persistency against early blight on tomatoes caused by Alternaria solani, protective treatment; type: in vivo; details: tomato cultivar Goldene Prinzessin, sprayed with 16 ppm a.i., infected only after seven days, rating after a further 5 days; untreated 90
Method: The active compounds were prepared separately as a stock solution with 0.25% by weight of active compound in acetone or DMSO. 1% by weight of the emulsifier Uniperol® EL (wetting agent having emulsifying and dispersing action based on ethoxylated alkylphenols) was added to this solution. The stock solutions of the active compounds were diluted with water to the stated concentration.
2. Persistency Against Early Blight on Tomatoes Caused by Alternaria solani, Protective Treatment
Leaves of potted plants of the cultivar “Goldene Prinzessin” were sprayed to runoff point with an aqueous suspension having the concentration of active compound stated below.
To test for persistency, the leaves were infected with an aqueous spore suspension of Alternaria solani in a 2% strength biomalt solution having a density of 0.17×10^6 spores/ml only after seven days. The plants were then placed in a water-vapor-saturated chamber at 20-22° C. After a further 5 days, the disease on the untreated, but infected control plants had developed to such an extent that the infection could be determined visually in %.

Phytophthora infestans = type: in vivo; details: tomato cultivar Goldene Prinzessin, sprayed with 250 ppm a.i., infected next day, visual rating after 6 days; untreated 80

C[C@H](Nc1nc(C(N)=O)nc(Cl)c1-c1c(F)cc(F)cc1F)C(F)(F)F [I-5, 4-chloro-6-((S)-2,2,2-trifluoro-1-methylethylamino)-5-(2,4,6-trifluorophenyl)-pyrimidine-2-carboxamide]
infection at 16 ppm of a.i. (% leaf area) (Alternaria solani): 30 % leaf area
infection at 250 ppm of a.i. (% leaf area) (Phytophthora infestans): 0 % leaf area

CC(C)OC(=O)c1nc(Cl)c(-c2c(F)cc(F)cc2F)c(N[C@@H](C)C(F)(F)F)n1 [V-3, isopropyl 4-chloro-6-((S)-2,2,2-trifluoro-1-methylethylamino)-5-(2,4,6-trifluorophenyl)pyrimidine-2-carboxylate]
infection at 250 ppm of a.i. (% leaf area) (Phytophthora infestans): 5 % leaf area
